From the supplement of paper PMC10307832

Experiments:
Assay in all cases: relative viability (nuclei count vs DMSO), 5 days (fraction); higher = more cells survive
NCI-H2085 = test system: NCI-H2085
In short: (§1)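 Relative viability divides the nuclei count in treated wells by that in vehicle wells. Lung cancer cell lines were seeded in 1536-well plates, dosed by pin tool the next day, and fixed and stained after 5 days in one step with final 0.05% Triton X-100, 1% formaldehyde and 1 ug/ml Hoechst. Dosing was a single drug or a fixed anchor-drug dose plus five library-drug doses (not always all listed) in √10 steps, and values are medians of duplicate plates imaged at 4×.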

NCI-H2170 = test system: NCI-H2170
In short: as §1

NCI-H1944 = test system: NCI-H1944
In short: as §1

LXF-289 = test system: LXF-289
In short: as §1

NCI-H358 = test system: NCI-H358
In short: as §1

SW 900 = test system: SW 900
In short: as §1

NCI-H1915 = test system: NCI-H1915
In short: as §1

HOP-62 = test system: HOP-62
In short: as §1

LC-2-ad = test system: LC-2-ad
In short: as §1

UMC-11 = test system: UMC-11
In short: as §1

HCC-78 = test system: HCC-78
In short: as §1

COR-L 105 = test system: COR-L 105
In short: as §1

LU99A = test system: LU99A
In short: as §1

HCC-366 = test system: HCC-366
In short: as §1

NCI-H1793 = test system: NCI-H1793
In short: as §1

LCLC-97TM1 = test system: LCLC-97TM1
In short: as §1

NCI-H1975 = test system: NCI-H1975
In short: as §1

NCI-H460 = test system: NCI-H460
In short: as §1

EPLC-272H = test system: EPLC-272H
In short: as §1

A-427 = test system: A-427
In short: as §1

SK-LU-1 = test system: SK-LU-1
In short: as §1

NCI-H1755 = test system: NCI-H1755
In short: as §1

CC1(C)CCC(c2ccc(Cl)cc2)=C(CN2CCN(c3ccc(C(=O)NS(=O)(=O)c4ccc(N[C@H](CCN5CCOCC5)CSc5ccccc5)c(S(=O)(=O)C(F)(F)F)c4)cc3)CC2)C1 [Navitoclax] + COc1cc2c(Oc3ccc(NC(=O)C4(C(=O)Nc5ccc(F)cc5)CC4)cc3F)ccnc2cc1OCCCN1CCOCC1 [Foretinib] (partner 0.25 µM) showed a relative viability (NCI-H2085; first compound 0.005 µM) of 0.92, a relative viability (NCI-H2085; first compound 0.01581 µM) of 0.98 and a relative viability (NCI-H2085; first compound 0.05 µM) of 0.989. It also gave a relative viability (NCI-H2085; first compound 0.1581 µM) of 0.863, a relative viability (NCI-H2085; first compound 0.5 µM) of 0.836 and a relative viability (NCI-H2170; first compound 0.005 µM) of 0.969. The relative viability (NCI-H2170; first compound 0.01581 µM) was 1.02, the relative viability (NCI-H2170; first compound 0.05 µM) was 1.08 and the relative viability (NCI-H2170; first compound 0.1581 µM) was 1.07. For the same compound, the relative viability (NCI-H2170; first compound 0.5 µM) was 0.955, the relative viability (NCI-H1944; first compound 0.005 µM) was 0.872 and the relative viability (NCI-H1944; first compound 0.01581 µM) was 0.945. It also gave a relative viability (NCI-H1944; first compound 0.05 µM) of 0.745, a relative viability (NCI-H1944; first compound 0.1581 µM) of 0.851 and a relative viability (NCI-H1944; first compound 0.5 µM) of 0.741. The relative viability (LXF-289; first compound 0.005 µM) was 1.05, the relative viability (LXF-289; first compound 0.01581 µM) was 0.981 and the relative viability (LXF-289; first compound 0.05 µM) was 0.924. The relative viability (LXF-289; first compound 0.1581 µM) was 0.93, the relative viability (LXF-289; first compound 0.5 µM) was 0.966 and the relative viability (NCI-H358; first compound 0.005 µM) was 0.743. It also gave a relative viability (NCI-H358; first compound 0.01581 µM) of 0.946, a relative viability (NCI-H358; first compound 0.05 µM) of 0.613 and a relative viability (NCI-H358; first compound 0.1581 µM) of 0.645. It also gave a relative viability (NCI-H358; first compound 0.5 µM) of 0.728, a relative viability (SW 900; first compound 0.005 µM) of 0.857 and a relative viability (SW 900; first compound 0.01581 µM) of 1.04. The relative viability (SW 900; first compound 0.05 µM) was 0.819, the relative viability (SW 900; first compound 0.1581 µM) was 0.643 and the relative viability (SW 900; first compound 0.5 µM) was 0.85. It also gave a relative viability (NCI-H1915; first compound 0.005 µM) of 1.08, a relative viability (NCI-H1915; first compound 0.01581 µM) of 1.12 and a relative viability (NCI-H1915; first compound 0.05 µM) of 1.11. The relative viability (NCI-H1915; first compound 0.1581 µM) was 1.02, the relative viability (NCI-H1915; first compound 0.5 µM) was 1.07 and the relative viability (HOP-62; first compound 0.005 µM) was 1.07. It also gave a relative viability (HOP-62; first compound 0.01581 µM) of 1.15, a relative viability (HOP-62; first compound 0.05 µM) of 1.19 and a relative viability (HOP-62; first compound 0.1581 µM) of 1.02. For the same compound, the relative viability (HOP-62; first compound 0.5 µM) was 1.02, the relative viability (LC-2-ad; first compound 0.005 µM) was 0.837 and the relative viability (LC-2-ad; first compound 0.01581 µM) was 1.29. It also gave a relative viability (LC-2-ad; first compound 0.05 µM) of 1.02, a relative viability (LC-2-ad; first compound 0.1581 µM) of 0.871 and a relative viability (LC-2-ad; first compound 0.5 µM) of 0.887. It also gave a relative viability (UMC-11; first compound 0.005 µM) of 0.976, a relative viability (UMC-11; first compound 0.01581 µM) of 1.14 and a relative viability (UMC-11; first compound 0.05 µM) of 1.18. The relative viability (UMC-11; first compound 0.1581 µM) was 0.937, the relative viability (UMC-11; first compound 0.5 µM) was 0.66 and the relative viability (HCC-78; first compound 0.005 µM) was 0.596. It also gave a relative viability (HCC-78; first compound 0.01581 µM) of 0.663, a relative viability (HCC-78; first compound 0.1581 µM) of 0.591 and a relative viability (HCC-78; first compound 0.5 µM) of 0.595. It also gave a relative viability (COR-L 105; first compound 0.005 µM) of 1.17, a relative viability (COR-L 105; first compound 0.01581 µM) of 1.46 and a relative viability (COR-L 105; first compound 0.05 µM) of 1.31. The relative viability (COR-L 105; first compound 0.1581 µM) was 0.865, the relative viability (COR-L 105; first compound 0.5 µM) was 0.979 and the relative viability (LU99A; first compound 0.005 µM) was 0.796. The relative viability (LU99A; first compound 0.01581 µM) was 0.886, the relative viability (LU99A; first compound 0.05 µM) was 0.459 and the relative viability (LU99A; first compound 0.1581 µM) was 0.804. For the same compound, the relative viability (LU99A; first compound 0.5 µM) was 0.799, the relative viability (HCC-366; first compound 0.005 µM) was 0.98 and the relative viability (HCC-366; first compound 0.01581 µM) was 0.82. It also gave a relative viability (HCC-366; first compound 0.1581 µM) of 1, a relative viability (HCC-366; first compound 0.5 µM) of 0.982 and a relative viability (NCI-H1793; first compound 0.005 µM) of 0.616. It also gave a relative viability (NCI-H1793; first compound 0.01581 µM) of 0.711, a relative viability (NCI-H1793; first compound 0.1581 µM) of 0.608 and a relative viability (NCI-H1793; first compound 0.5 µM) of 0.622. It also gave a relative viability (LCLC-97TM1; first compound 0.005 µM) of 0.972, a relative viability (LCLC-97TM1; first compound 0.01581 µM) of 0.984 and a relative viability (LCLC-97TM1; first compound 0.05 µM) of 0.831. For the same compound, the relative viability (LCLC-97TM1; first compound 0.1581 µM) was 0.985, the relative viability (LCLC-97TM1; first compound 0.5 µM) was 0.921 and the relative viability (NCI-H1975; first compound 0.005 µM) was 0.887. The relative viability (NCI-H1975; first compound 0.01581 µM) was 1.03, the relative viability (NCI-H1975; first compound 0.05 µM) was 1.03 and the relative viability (NCI-H1975; first compound 0.1581 µM) was 0.914. The relative viability (NCI-H1975; first compound 0.5 µM) was 1.04, the relative viability (NCI-H460; first compound 0.005 µM) was 0.991 and the relative viability (NCI-H460; first compound 0.01581 µM) was 1.02. It also gave a relative viability (NCI-H460; first compound 0.05 µM) of 0.713, a relative viability (NCI-H460; first compound 0.1581 µM) of 1.01 and a relative viability (NCI-H460; first compound 0.5 µM) of 0.941. It also gave a relative viability (EPLC-272H; first compound 0.005 µM) of 0.707, a relative viability (EPLC-272H; first compound 0.05 µM) of 0.766 and a relative viability (EPLC-272H; first compound 0.1581 µM) of 0.712. For the same compound, the relative viability (EPLC-272H; first compound 0.5 µM) was 0.764, the relative viability (A-427; first compound 0.005 µM) was 0.988 and the relative viability (A-427; first compound 0.01581 µM) was 1.07. It also gave a relative viability (A-427; first compound 0.05 µM) of 0.821, a relative viability (A-427; first compound 0.1581 µM) of 1.04 and a relative viability (A-427; first compound 0.5 µM) of 1.1. The relative viability (SK-LU-1; first compound 0.005 µM) was 0.928, the relative viability (SK-LU-1; first compound 0.01581 µM) was 0.954 and the relative viability (SK-LU-1; first compound 0.05 µM) was 0.953. The relative viability (SK-LU-1; first compound 0.1581 µM) was 0.772, the relative viability (SK-LU-1; first compound 0.5 µM) was 0.741 and the relative viability (NCI-H1755; first compound 0.005 µM) was 0.873. For the same compound, the relative viability (NCI-H1755; first compound 0.01581 µM) was 1.01, the relative viability (NCI-H1755; first compound 0.05 µM) was 0.735 and the relative viability (NCI-H1755; first compound 0.1581 µM) was 0.901. It also gave a relative viability (NCI-H1755; first compound 0.5 µM) of 0.855.
